According to ChEMBL document CHEMBL1201862, “PubChem BioAssay data set” (2004):
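Tested at 5 concentrations; 48 h exposure; 96-well plates; endpoints linearly interpolated, else capped at highest concentration. GI50: concentration for 50% inhibition of growth.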 Calls of active or inactive are those of the source. Rule as the data show it: active = GI50 up to about 1.1 µM and inactive = higher.

Legend:
Assay in all cases: inhibition of tumour cell growth, NCI panel, 48 h
A549 = system: A549
SR = system: SR
SK-MEL-5 = system: SK-MEL-5
OVCAR-8 = system: OVCAR-8
NCI/ADR-RES = system: NCI/ADR-RES
A498 = system: A498
SNB-75 = system: SNB-75
ACHN = system: ACHN
SF-539 = system: SF-539
Hs-578T = system: Hs-578T
CCRF-CEM = system: CCRF-CEM
TK-10 = system: TK-10
NCI-H23 = system: NCI-H23
UACC-62 = system: UACC-62
HCC 2998 = system: HCC 2998
SNB-19 = system: SNB-19
HOP-92 = system: HOP-92
NCI-H522 = system: NCI-H522

Measured: GI50

COCCn1cnc2c(Cl)nc(Nc3ccccc3)nc21
inactive: A549 48.8 µM | SR 26.2 µM | SK-MEL-5 38.7 µM | OVCAR-8 23.9 µM | NCI/ADR-RES 39.2 µM | A498 59.4 µM | SNB-75 68.5 µM | ACHN 17.9 µM | SF-539 > 100 µM | Hs-578T 24.1 µM | CCRF-CEM 19.3 µM | TK-10 > 100 µM | NCI-H23 33.3 µM | UACC-62 25.6 µM | HCC 2998 17.3 µM | SNB-19 90.4 µM

Cc1cccc(/C=C2/C(=O)Nc3ccccc32)n1
inactive: HOP-92 7.82 µM | NCI-H522 12.7 µM | SK-MEL-5 12.9 µM | OVCAR-8 23.3 µM | NCI/ADR-RES 14.6 µM | A498 21.3 µM | SNB-75 28.8 µM | ACHN 10.3 µM | SF-539 20.5 µM | Hs-578T 24.2 µM | CCRF-CEM 15.4 µM | TK-10 15.7 µM | NCI-H23 10.4 µM | HCC 2998 10.6 µM | SNB-19 23.7 µM

Cc1ccc(NC(=O)CC(=O)N2N=C(N(c3ccccc3)c3ccccc3)CC2c2ccccc2)cc1 (centres undefined)
inactive: A549 > 100 µM | HOP-92 > 100 µM | NCI-H522 > 100 µM | SK-MEL-5 > 100 µM | OVCAR-8 > 100 µM | NCI/ADR-RES > 100 µM | A498 > 100 µM | SNB-75 91.4 µM | ACHN > 100 µM | SF-539 > 100 µM | Hs-578T 31.6 µM | CCRF-CEM > 100 µM | TK-10 > 100 µM | NCI-H23 > 100 µM | UACC-62 > 100 µM | HCC 2998 > 100 µM | SNB-19 > 100 µM

COc1ccc(/C=N/Nc2nc(=S)[nH]c3[nH]ncc23)cc1
inactive: A549 54.3 µM | SR > 100 µM | NCI-H522 26.2 µM | SK-MEL-5 30 µM | OVCAR-8 > 100 µM | NCI/ADR-RES > 100 µM | A498 40.9 µM | SNB-75 > 100 µM | ACHN 43.3 µM | SF-539 > 100 µM | Hs-578T > 100 µM | CCRF-CEM 24.7 µM | TK-10 33.1 µM | NCI-H23 27.5 µM | UACC-62 31 µM | HCC 2998 35 µM | SNB-19 22.2 µM

C=C1CC[C@@H]2C13[C@@H]1[C@H](CC(=O)[C@@]23C)C1(C)C (some centres undefined)
inactive: A549 26.4 µM | SR 11.7 µM | HOP-92 > 100 µM | NCI-H522 > 100 µM | SK-MEL-5 > 100 µM | OVCAR-8 35.9 µM | NCI/ADR-RES > 100 µM | A498 > 100 µM | ACHN > 100 µM | SF-539 67.1 µM | Hs-578T > 100 µM | TK-10 33.7 µM | NCI-H23 > 100 µM | UACC-62 > 100 µM
